Data from ChEMBL document CHEMBL3608278 (J Med Chem, 2015).

Tests used:
[1] = target: T1, Potassium voltage-gated channel subfamily A member 3 (Homo sapiens, UniProt P22001); assay: cell-based; parameters: species or system Blood
[2] = target: T1, Potassium voltage-gated channel subfamily A member 3; parameters: species or system Blood

T1 sequence (P22001 whole entry): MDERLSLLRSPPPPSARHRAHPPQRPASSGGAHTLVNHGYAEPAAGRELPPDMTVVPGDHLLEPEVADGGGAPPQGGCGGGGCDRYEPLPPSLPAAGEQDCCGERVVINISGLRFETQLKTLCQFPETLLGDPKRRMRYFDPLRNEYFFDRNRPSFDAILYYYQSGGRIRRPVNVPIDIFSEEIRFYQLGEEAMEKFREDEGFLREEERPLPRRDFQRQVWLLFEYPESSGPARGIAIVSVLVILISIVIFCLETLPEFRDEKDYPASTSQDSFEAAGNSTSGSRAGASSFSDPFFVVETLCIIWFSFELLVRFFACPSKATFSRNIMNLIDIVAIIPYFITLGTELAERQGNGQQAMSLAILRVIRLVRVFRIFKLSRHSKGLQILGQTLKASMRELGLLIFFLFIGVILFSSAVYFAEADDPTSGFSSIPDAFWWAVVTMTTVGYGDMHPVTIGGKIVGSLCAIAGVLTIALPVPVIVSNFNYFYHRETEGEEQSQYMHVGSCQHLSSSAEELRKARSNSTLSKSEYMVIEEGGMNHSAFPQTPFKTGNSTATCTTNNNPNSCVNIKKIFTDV

Structure (SMILES)	IC50 [1]	IC50 [2]
CC[C@H](C)[C@@H]1NC(=O)[C@@H](NC(=O)[C@H](CO)NC(=O)[C@@H](N)CCCNC(=N)N)CSSC[C@@H](C(=O)O)NC(=O)[C@H]([C@@H](C)O)NC(=O)CNC(=O)[C@@H]2CSSC[C@@H]3NC(=O)[C@H](CCC(N)=O)NC(=O)[C@H](Cc4ccccc4)NC(=O)[C@H](C)NC(=O)[C@H]([C@@H](C)O)NC(=O)[C@H](CSSC[C@H](NC(=O)[C@H](Cc4ccccc4)NC(=O)[C@H](CO)NC(=O)[C@H](CC(C)C)NC(=O)[C@H](CCCNC(=N)N)NC(=O)[C@H](Cc4ccc(O)cc4)NC(=O)[C@H](CCCCN)NC(=O)[C@H](CCSC)NC(=O)[C@H](CO)NC(=O)[C@H](Cc4cnc[nH]4)NC(=O)[C@H](CCCCN)NC3=O)C(=O)N[C@@H](CCCNC(=N)N)C(=O)N[C@@H](CCCCN)C(=O)N[C@@H]([C@@H](C)O)C(=O)N2)NC(=O)[C@H](CCCNC(=N)N)NC(=O)[C@H](CO)NC(=O)[C@H](CCCNC(=N)N)NC(=O)[C@@H]2CCCN2C(=O)[C@H]([C@@H](C)CC)NC(=O)[C@H]([C@@H](C)O)NC(=O)[C@H](CC(=O)O)NC1=O	0.076 nM	0.083 nM
CC[C@H](C)[C@@H]1NC(=O)[C@@H](NC(=O)[C@H](CO)NC(=O)[C@@H](N)CCCNC(=N)N)CSSC[C@@H](C(=O)O)NC(=O)[C@H]([C@@H](C)O)NC(=O)CNC(=O)[C@@H]2CSSC[C@@H]3NC(=O)[C@H](CCC(N)=O)NC(=O)[C@H](Cc4ccccc4)NC(=O)[C@H](C)NC(=O)[C@H]([C@@H](C)O)NC(=O)[C@H](CSSC[C@H](NC(=O)[C@H](Cc4ccccc4)NC(=O)[C@H](CO)NC(=O)[C@H](CCCNC(=N)N)NC(=O)[C@H](CCCNC(=N)N)NC(=O)[C@H](Cc4ccc(O)cc4)NC(=O)[C@H](CCCCN)NC(=O)[C@H](CCSC)NC(=O)[C@H](CO)NC(=O)[C@H](Cc4cnc[nH]4)NC(=O)[C@H](CCCCN)NC3=O)C(=O)N[C@@H](CCCNC(=N)N)C(=O)N[C@@H](CCCCN)C(=O)N[C@@H]([C@@H](C)O)C(=O)N2)NC(=O)[C@H](CCCNC(=N)N)NC(=O)[C@H](CO)NC(=O)[C@H](CCCCN)NC(=O)[C@@H]2CCCN2C(=O)[C@H]([C@@H](C)CC)NC(=O)[C@H]([C@@H](C)O)NC(=O)[C@H](CC(=O)O)NC1=O	0.137 nM	0.194 nM
CC[C@H](C)[C@@H]1NC(=O)[C@@H](NC(=O)[C@H](CO)NC(=O)[C@@H](N)CCCNC(=N)N)CSSC[C@@H](C(=O)O)NC(=O)[C@H]([C@@H](C)O)NC(=O)CNC(=O)[C@@H]2CSSC[C@@H]3NC(=O)[C@H](CCC(N)=O)NC(=O)[C@H](Cc4ccccc4)NC(=O)[C@H](C)NC(=O)[C@H]([C@@H](C)O)NC(=O)[C@H](CSSC[C@H](NC(=O)[C@H](Cc4ccccc4)NC(=O)[C@H](CCCNC(=N)N)NC(=O)[C@H](CC(C)C)NC(=O)[C@H](CCCNC(=N)N)NC(=O)[C@H](Cc4ccc(O)cc4)NC(=O)[C@H](CCCCN)NC(=O)[C@H](CCSC)NC(=O)[C@H](CO)NC(=O)[C@H](Cc4cnc[nH]4)NC(=O)[C@H](CCCCN)NC3=O)C(=O)N[C@@H](CCCNC(=N)N)C(=O)N[C@@H](CCCCN)C(=O)N[C@@H]([C@@H](C)O)C(=O)N2)NC(=O)[C@H](CCCNC(=N)N)NC(=O)[C@H](CO)NC(=O)[C@H](CCCCN)NC(=O)[C@@H]2CCCN2C(=O)[C@H]([C@@H](C)CC)NC(=O)[C@H]([C@@H](C)O)NC(=O)[C@H](CC(=O)O)NC1=O	0.158 nM	0.368 nM
CC[C@H](C)[C@@H]1NC(=O)[C@@H](NC(=O)[C@H](CO)NC(=O)[C@@H](N)CCCNC(=N)N)CSSC[C@@H](C(=O)O)NC(=O)[C@H]([C@@H](C)O)NC(=O)CNC(=O)[C@@H]2CSSC[C@@H]3NC(=O)[C@H](CCC(N)=O)NC(=O)[C@H](Cc4ccccc4)NC(=O)[C@H](C)NC(=O)[C@H]([C@@H](C)O)NC(=O)[C@H](CSSC[C@H](NC(=O)[C@H](Cc4ccccc4)NC(=O)[C@H](CO)NC(=O)[C@H](CC(C)C)NC(=O)[C@H](CCCNC(=N)N)NC(=O)[C@H](Cc4ccc(O)cc4)NC(=O)[C@H](CCCCN)NC(=O)[C@H](CCSC)NC(=O)[C@H](CO)NC(=O)[C@H](CCCCN)NC(=O)[C@H](CCCCN)NC3=O)C(=O)N[C@@H](CCCNC(=N)N)C(=O)N[C@@H](CCCCN)C(=O)N[C@@H]([C@@H](C)O)C(=O)N2)NC(=O)[C@H](CCCNC(=N)N)NC(=O)[C@H](CO)NC(=O)[C@H](CCCCN)NC(=O)[C@@H]2CCCN2C(=O)[C@H]([C@@H](C)CC)NC(=O)[C@H]([C@@H](C)O)NC(=O)[C@H](CC(=O)O)NC1=O	0.041 nM	0.089 nM
CC[C@H](C)[C@@H]1NC(=O)[C@@H](NC(=O)[C@H](CO)NC(=O)[C@@H](N)CCCNC(=N)N)CSSC[C@@H](C(=O)O)NC(=O)[C@H]([C@@H](C)O)NC(=O)CNC(=O)[C@@H]2CSSC[C@@H]3NC(=O)[C@H](CCC(N)=O)NC(=O)[C@H](Cc4ccccc4)NC(=O)[C@H](C)NC(=O)[C@H]([C@@H](C)O)NC(=O)[C@H](CSSC[C@H](NC(=O)[C@H](Cc4ccccc4)NC(=O)[C@H](CO)NC(=O)[C@H](CCCCN)NC(=O)[C@H](CCCNC(=N)N)NC(=O)[C@H](Cc4ccc(O)cc4)NC(=O)[C@H](CCCCN)NC(=O)[C@H](CCSC)NC(=O)[C@H](CO)NC(=O)[C@H](Cc4cnc[nH]4)NC(=O)[C@H](CCCCN)NC3=O)C(=O)N[C@@H](CCCNC(=N)N)C(=O)N[C@@H](CCCCN)C(=O)N[C@@H]([C@@H](C)O)C(=O)N2)NC(=O)[C@H](CCCNC(=N)N)NC(=O)[C@H](CO)NC(=O)[C@H](CCCCN)NC(=O)[C@@H]2CCCN2C(=O)[C@H]([C@@H](C)CC)NC(=O)[C@H]([C@@H](C)O)NC(=O)[C@H](CC(=O)O)NC1=O	0.226 nM	0.366 nM
CC[C@H](C)[C@@H]1NC(=O)[C@@H](NC(=O)[C@H](CO)NC(=O)[C@@H](N)CCCNC(=N)N)CSSC[C@@H](C(=O)O)NC(=O)[C@H]([C@@H](C)O)NC(=O)CNC(=O)[C@@H]2CSSC[C@@H]3NC(=O)[C@H](CCC(N)=O)NC(=O)[C@H](Cc4ccccc4)NC(=O)[C@H](C)NC(=O)[C@H]([C@@H](C)O)NC(=O)[C@H](CSSC[C@H](NC(=O)[C@H](Cc4ccccc4)NC(=O)[C@H](CO)NC(=O)[C@H](CC(C)C)NC(=O)[C@H](CCCNC(=N)N)NC(=O)[C@H](Cc4ccc(O)cc4)NC(=O)[C@H](CCCCN)NC(=O)[C@H](CCSC)NC(=O)[C@H](CO)NC(=O)[C@H](Cc4c[nH]cn4)NC(=O)[C@H](CCCCN)NC3=O)C(=O)N[C@@H](CCCNC(=N)N)C(=O)N[C@@H](CCCCN)C(=O)N[C@@H](CCCCN)C(=O)N2)NC(=O)[C@H](CCCNC(=N)N)NC(=O)[C@H](CO)NC(=O)[C@H](CCCCN)NC(=O)[C@@H]2CCCN2C(=O)[C@H]([C@@H](C)CC)NC(=O)[C@H]([C@@H](C)O)NC(=O)[C@H](CC(=O)O)NC1=O	5.98 nM	27.9 nM
CC[C@H](C)[C@@H]1NC(=O)[C@@H](NC(=O)[C@H](CO)NC(=O)[C@@H](N)CCCNC(=N)N)CSSC[C@@H](C(=O)O)NC(=O)[C@H]([C@@H](C)O)NC(=O)CNC(=O)[C@@H]2CSSC[C@@H]3NC(=O)[C@H](CCN)NC(=O)[C@H](Cc4ccccc4)NC(=O)[C@H](C)NC(=O)[C@H]([C@@H](C)O)NC(=O)[C@H](CSSC[C@H](NC(=O)[C@H](Cc4ccccc4)NC(=O)[C@H](CO)NC(=O)[C@H](CC(C)C)NC(=O)[C@H](CCCNC(=N)N)NC(=O)[C@H](Cc4ccc(O)cc4)NC(=O)[C@H](CCCCN)NC(=O)[C@H](CCSC)NC(=O)[C@H](CO)NC(=O)[C@H](Cc4c[nH]cn4)NC(=O)[C@H](CCCCN)NC3=O)C(=O)N[C@@H](CCCNC(=N)N)C(=O)N[C@@H](CCCCN)C(=O)N[C@@H]([C@@H](C)O)C(=O)N2)NC(=O)[C@H](CCCNC(=N)N)NC(=O)[C@H](CO)NC(=O)[C@H](CCCCN)NC(=O)[C@@H]2CCCN2C(=O)[C@H]([C@@H](C)CC)NC(=O)[C@H]([C@@H](C)O)NC(=O)[C@H](CC(=O)O)NC1=O	0.086 nM	0.223 nM
CC[C@H](C)[C@@H]1NC(=O)[C@@H](NC(=O)[C@H](CO)NC(=O)[C@@H](N)CCCNC(=N)N)CSSC[C@@H](C(=O)N[C@@H](C)C(=O)O)NC(=O)[C@H]([C@@H](C)O)NC(=O)CNC(=O)[C@@H]2CSSC[C@@H]3NC(=O)[C@H](CCCCN)NC(=O)[C@H](Cc4ccccc4)NC(=O)[C@H](C)NC(=O)[C@H]([C@@H](C)O)NC(=O)[C@H](CSSC[C@H](NC(=O)[C@H](Cc4ccccc4)NC(=O)[C@H](CO)NC(=O)[C@H](CC(C)C)NC(=O)[C@H](CCCNC(=N)N)NC(=O)[C@H](Cc4ccc(O)cc4)NC(=O)[C@H](CCCCN)NC(=O)[C@H](CCSC)NC(=O)[C@H](CO)NC(=O)[C@H](Cc4cnc[nH]4)NC(=O)[C@H](CCCCN)NC3=O)C(=O)N[C@@H](CCCNC(=N)N)C(=O)N[C@@H](CCCCN)C(=O)N[C@@H]([C@@H](C)O)C(=O)N2)NC(=O)[C@H](CCCNC(=N)N)NC(=O)[C@H](CO)NC(=O)[C@H](CCCCN)NC(=O)[C@@H]2CCCN2C(=O)[C@H]([C@@H](C)CC)NC(=O)[C@H]([C@@H](C)O)NC(=O)[C@H](CC(=O)O)NC1=O	0.138 nM	0.266 nM
CCCC[C@@H]1NC(=O)[C@H](CO)NC(=O)[C@H](Cc2c[nH]cn2)NC(=O)[C@H](CCCCN)NC(=O)[C@@H]2CSSC[C@@H]3NC(=O)[C@H]([C@@H](C)O)NC(=O)[C@H](CCCCN)NC(=O)[C@H](CCCNC(=N)N)NC(=O)[C@H](CSSC[C@H](NC(=O)[C@H](CCCNC(=N)N)NC(=O)[C@H](CO)NC(=O)[C@H](CCCCN)NC(=O)[C@@H]4CCCN4C(=O)[C@H]([C@@H](C)CC)NC(=O)[C@H]([C@@H](C)O)NC(=O)[C@H](CC(=O)O)NC(=O)[C@H]([C@@H](C)CC)NC(=O)[C@@H](NC(=O)[C@H](CO)NC(=O)[C@@H](N)CCCNC(=N)N)CSSC[C@@H](C(N)=O)NC(=O)[C@H]([C@@H](C)O)NC(=O)CNC3=O)C(=O)N[C@@H]([C@@H](C)O)C(=O)N[C@@H](C)C(=O)N[C@@H](Cc3ccccc3)C(=O)N[C@@H](CCCCN)C(=O)N2)NC(=O)[C@H](Cc2ccccc2)NC(=O)[C@H](CO)NC(=O)[C@H](CC(C)C)NC(=O)[C@H](CCCNC(=N)N)NC(=O)[C@H](Cc2ccc(O)cc2)NC(=O)[C@H](CCCCN)NC1=O	0.823 nM	1.1 nM
